Earlier results, collected in patent US20230355643A1, “SOLVENT DELIVERY SYSTEM FOR TOPICAL DELIVERY OF ACTIVE AGENTS” (Timber Pharmaceuticals, Inc., priority 2019, published 2023).

Details: log10 of organic solvent (such as octanol)/aqueous solvent partition coefficient

| logP | Compound |
| --- | --- |
| 3.4 | CN(C)CCC(c1ccc(Br)cc1)c1ccccn1 (stereo not drawn) [brompheniramine] |
| ~3.84 | C=C1/C(=C\C=C2/CCC[C@]3(C)[C@@H]([C@H](C)/C=C/[C@@H](O)C4CC4)CC[C@@H]23)C[C@@H](O)C[C@@H]1O [calcipotriol] |
| ~3.38 | CN(C)CCC(c1ccc(Cl)cc1)c1ccccn1 (stereo not drawn) [chlorpheniramine] |
| ~5.2 | CN1CCC[C@@H]1CCO[C@](C)(c1ccccc1)c1ccc(Cl)cc1 [clemastine] |
| 4.44 | O=C(O)c1cc(-c2ccc(F)cc2F)ccc1O [diflunisal] |
| 6.96 | CC(C)(C)c1ccc(C(=O)CCCN2CCC(OC(c3ccccc3)c3ccccc3)CC2)cc1 [ebastine] |
| ~5.5 | Clc1ccc(COC(Cn2ccnc2)c2ccc(Cl)cc2Cl)cc1 (stereo not drawn) [econazole] |
| ~3.7 | Cc1ccc(-c2ncc(Cl)cc2-c2ccc(S(C)(=O)=O)cc2)cn1 [etoricoxib] |
| ~3.1 | CC(C(=O)O)c1cccc(Oc2ccccc2)c1 (stereo not drawn) [fenoprofen] |
| ~4.16 | CC(C(=O)O)c1ccc(-c2ccccc2)c(F)c1 (stereo not drawn) [flurbiprofen] |
| ~4.27 | COc1ccc2c(c1)c(CC(=O)O)c(C)n2C(=O)c1ccc(Cl)cc1 [indometocin] |
| ~3,12 | CC(C(=O)O)c1cccc(C(=O)c2ccccc2)c1 (stereo not drawn) [ketoprofen] |
| ~5.12 | Cc1cccc(Nc2ccccc2C(=O)O)c1C [mefenamic acid] |
| ~6.1 | Clc1ccc(COC(Cn2ccnc2)c2ccc(Cl)cc2Cl)c(Cl)c1 (stereo not drawn) [miconazole] |
| ~5.84 | Clc1ccc(CO/N=C(\Cn2ccnc2)c2ccc(Cl)cc2Cl)c(Cl)c1 [oxiconazole] |
| ~3.06 | CN1C(C(=O)Nc2ccccn2)=C(O)c2ccccc2S1(=O)=O [piroxicam] |
| ~3.44 | O=C(Oc1ccccc1C(=O)O)c1ccccc1O [salsalate] |
| ~5.6 | CCOC(=O)c1ccc(C#Cc2ccc3c(c2)C(C)(C)CCS3)nc1 [tazarotene, ethyl 6-[2-(4,4-dimethyl-2,3-dihydrothiochromen-6-yl)ethynyl]pyridine-3-carboxylate] |
| ~3.32 | Cc1onc(-c2ccccc2)c1-c1ccc(S(N)(=O)=O)cc1 [valdecoxib] |
| ~6.76 | texaphyrin |

| Compound | logP |
| --- | --- |
| ivermectin | ~5.83 |
